Assay results as given in PMC3234165 (Biochemistry, 2011).
Like-named read-outs stand apart in the source and are kept apart here.

What was measured:
[1] = molecular target: T1, sigma-2 receptor (sigma-2 sites) (Rattus norvegicus, UniProt Q5U3Y7); assay: Competitive displacement of [3H]-DTG binding, rat liver membranes; conditions: for KI sigma-2 sites: rat liver membranes in the presence of 100 nM (+)-pentazocine, [3H]-DTG; for sigma-2/sigma-1: ratio from the KI value of sigma-1 and sigma-2 sites (membranes)
T1 sequence (Q5U3Y7 1-176): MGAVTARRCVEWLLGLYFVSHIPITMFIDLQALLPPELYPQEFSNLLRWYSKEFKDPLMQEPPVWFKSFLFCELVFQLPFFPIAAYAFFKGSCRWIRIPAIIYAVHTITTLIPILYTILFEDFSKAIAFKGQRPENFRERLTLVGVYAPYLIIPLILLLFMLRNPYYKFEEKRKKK

[2] = molecular target: pure guinea pig sigma-1 receptor (Cavia porcellus, UniProt Q60492); assay: Competitive displacement of [3H]-; assay type: binding
Chain of pure guinea pig sigma-1 receptor (Q60492 whole entry): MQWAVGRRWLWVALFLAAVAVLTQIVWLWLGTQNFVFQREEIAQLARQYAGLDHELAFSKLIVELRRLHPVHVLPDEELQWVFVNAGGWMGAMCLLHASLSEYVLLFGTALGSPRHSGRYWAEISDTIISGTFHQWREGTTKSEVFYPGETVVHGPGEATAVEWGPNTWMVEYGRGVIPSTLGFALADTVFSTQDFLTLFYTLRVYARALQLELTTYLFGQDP

[3] = molecular target: Kv1.4 potassium channel (Rattus norvegicus, UniProt P15385+Q9R0C9); assay: Whole cell patch clamp, HEK-293 cells co-expressing Kv1.4 and sigma-1 receptor; assay type: cell-based; conditions: for average inhibition of the Kv1.4 potassium channel: concentrations up to 300 μM, HEK-293 with Kv1.4 and sigma-1 receptor
Chain of Kv1.4 potassium channel (P15385 whole entry): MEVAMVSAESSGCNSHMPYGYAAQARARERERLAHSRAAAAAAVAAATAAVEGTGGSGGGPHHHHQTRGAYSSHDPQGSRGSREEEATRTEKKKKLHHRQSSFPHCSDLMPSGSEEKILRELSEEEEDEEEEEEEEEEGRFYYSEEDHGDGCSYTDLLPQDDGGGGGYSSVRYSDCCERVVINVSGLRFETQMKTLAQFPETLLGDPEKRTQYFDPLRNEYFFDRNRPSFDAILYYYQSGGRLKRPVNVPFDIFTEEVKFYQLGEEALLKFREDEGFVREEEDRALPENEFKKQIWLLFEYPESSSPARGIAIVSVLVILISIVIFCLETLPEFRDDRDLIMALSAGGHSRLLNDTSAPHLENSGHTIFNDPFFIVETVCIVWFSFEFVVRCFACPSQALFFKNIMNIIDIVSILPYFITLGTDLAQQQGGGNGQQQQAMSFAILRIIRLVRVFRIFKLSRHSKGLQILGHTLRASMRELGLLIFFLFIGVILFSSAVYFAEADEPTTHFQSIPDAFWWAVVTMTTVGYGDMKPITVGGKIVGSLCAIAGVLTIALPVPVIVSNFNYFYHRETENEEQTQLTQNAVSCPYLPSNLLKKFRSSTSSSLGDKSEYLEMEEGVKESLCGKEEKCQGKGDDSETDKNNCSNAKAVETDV
Chain of Kv1.4 potassium channel (Q9R0C9 whole entry): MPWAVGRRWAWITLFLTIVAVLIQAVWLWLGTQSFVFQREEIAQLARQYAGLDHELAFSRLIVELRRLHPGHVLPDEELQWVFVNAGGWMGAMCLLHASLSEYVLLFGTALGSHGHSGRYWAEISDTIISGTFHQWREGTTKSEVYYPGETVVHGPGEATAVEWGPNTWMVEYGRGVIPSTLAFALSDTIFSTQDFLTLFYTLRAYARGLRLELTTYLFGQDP

[4] = molecular target: Sig-1R, sigma-1 receptor (Rattus norvegicus, UniProt Q9R0C9); assay: NIMH PDSP secondary binding assay
Chain of Sig-1R, sigma-1 receptor (Q9R0C9 whole entry): as above

[5] = molecular target: T2, Sig-2R, sigma-2 receptor (Rattus norvegicus, UniProt Q5U3Y7); assay: NIMH PDSP secondary binding assay
T2 sequence (Q5U3Y7 1-176): T1 sequence (Q5U3Y7 1-176)

[6] = molecular target: T3, 5HT1A (serotonin receptor subtype 1A) (Homo sapiens, UniProt P08908); assay: NIMH PDSP secondary binding assay; conditions: KI 5HT1A
T3 sequence (P08908 1-422): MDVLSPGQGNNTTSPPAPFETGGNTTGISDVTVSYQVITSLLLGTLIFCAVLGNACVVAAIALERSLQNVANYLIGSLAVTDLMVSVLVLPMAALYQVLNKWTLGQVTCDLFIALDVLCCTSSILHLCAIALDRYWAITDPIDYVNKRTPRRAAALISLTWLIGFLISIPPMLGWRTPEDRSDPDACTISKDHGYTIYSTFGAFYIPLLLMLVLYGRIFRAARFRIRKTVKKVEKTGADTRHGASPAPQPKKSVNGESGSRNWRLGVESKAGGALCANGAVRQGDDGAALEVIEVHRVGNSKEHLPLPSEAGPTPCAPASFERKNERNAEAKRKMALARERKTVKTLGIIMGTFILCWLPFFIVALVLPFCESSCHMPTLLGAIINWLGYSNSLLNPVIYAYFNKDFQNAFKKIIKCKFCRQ

[7] = molecular target: 5HT1B (serotonin receptor subtype 1B) (Homo sapiens, UniProt P28222); assay: NIMH PDSP secondary binding assay
[8] = molecular target: 5HT2B (serotonin receptor subtype 2B) (Homo sapiens, UniProt P41595); assay: NIMH PDSP secondary binding assay
Chain of 5HT2B (serotonin receptor subtype 2B) (P41595 whole entry, species assumed): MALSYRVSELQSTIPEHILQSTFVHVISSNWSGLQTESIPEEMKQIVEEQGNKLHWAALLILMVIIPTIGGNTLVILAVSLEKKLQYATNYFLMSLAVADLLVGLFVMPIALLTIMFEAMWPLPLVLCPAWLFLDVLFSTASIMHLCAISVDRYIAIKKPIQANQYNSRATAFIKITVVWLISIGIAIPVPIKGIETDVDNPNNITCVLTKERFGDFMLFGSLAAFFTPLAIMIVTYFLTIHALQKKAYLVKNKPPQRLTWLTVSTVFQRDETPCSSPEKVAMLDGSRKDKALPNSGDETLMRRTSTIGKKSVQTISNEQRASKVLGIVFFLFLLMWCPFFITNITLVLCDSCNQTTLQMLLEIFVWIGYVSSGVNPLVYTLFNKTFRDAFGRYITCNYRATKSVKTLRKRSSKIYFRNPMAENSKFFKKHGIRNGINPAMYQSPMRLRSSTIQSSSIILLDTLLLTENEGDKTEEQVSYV

[9] = molecular target: 5HT7 (serotonin receptor subtype 7) (Homo sapiens, UniProt P34969); assay: NIMH PDSP secondary binding assay
Chain of 5HT7 (serotonin receptor subtype 7) (P34969 whole entry, species assumed): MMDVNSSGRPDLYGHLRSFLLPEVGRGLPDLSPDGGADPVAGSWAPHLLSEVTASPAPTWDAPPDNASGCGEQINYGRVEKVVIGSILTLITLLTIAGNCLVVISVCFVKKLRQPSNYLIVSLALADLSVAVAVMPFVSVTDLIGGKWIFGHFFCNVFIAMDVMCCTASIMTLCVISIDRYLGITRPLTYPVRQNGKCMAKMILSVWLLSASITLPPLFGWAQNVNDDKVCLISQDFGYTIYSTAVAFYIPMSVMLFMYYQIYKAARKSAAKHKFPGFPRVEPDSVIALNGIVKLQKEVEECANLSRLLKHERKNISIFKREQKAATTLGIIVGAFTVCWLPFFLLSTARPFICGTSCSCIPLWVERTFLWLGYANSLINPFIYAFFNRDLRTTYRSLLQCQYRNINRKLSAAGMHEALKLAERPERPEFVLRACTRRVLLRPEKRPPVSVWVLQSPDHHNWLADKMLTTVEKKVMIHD

[10] = molecular target: T4, α-1A (α-adrenergic receptor subtype 1A) (Homo sapiens, UniProt P35348); assay: NIMH PDSP secondary binding assay
T4 sequence (P35348 1-466): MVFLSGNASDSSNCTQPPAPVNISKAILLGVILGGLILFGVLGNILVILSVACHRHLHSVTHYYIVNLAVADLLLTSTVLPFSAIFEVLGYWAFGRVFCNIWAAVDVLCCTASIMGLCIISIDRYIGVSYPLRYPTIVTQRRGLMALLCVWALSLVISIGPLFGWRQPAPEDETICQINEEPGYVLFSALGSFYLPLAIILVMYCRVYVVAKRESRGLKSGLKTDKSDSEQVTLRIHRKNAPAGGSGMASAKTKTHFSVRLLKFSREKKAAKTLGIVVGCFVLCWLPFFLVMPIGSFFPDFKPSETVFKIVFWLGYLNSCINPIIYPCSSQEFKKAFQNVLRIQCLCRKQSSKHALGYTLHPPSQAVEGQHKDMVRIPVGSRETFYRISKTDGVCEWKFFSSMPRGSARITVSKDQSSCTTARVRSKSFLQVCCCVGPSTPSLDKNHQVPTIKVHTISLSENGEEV

[11] = molecular target: β-2 (β-adrenergic receptor subtype 2) (Homo sapiens, UniProt P07550); assay: NIMH PDSP secondary binding assay
[12] = molecular target: β-3 (β-adrenergic receptor subtype 3) (Homo sapiens, UniProt P13945); assay: NIMH PDSP secondary binding assay
Chain of β-3 (β-adrenergic receptor subtype 3) (P13945 whole entry): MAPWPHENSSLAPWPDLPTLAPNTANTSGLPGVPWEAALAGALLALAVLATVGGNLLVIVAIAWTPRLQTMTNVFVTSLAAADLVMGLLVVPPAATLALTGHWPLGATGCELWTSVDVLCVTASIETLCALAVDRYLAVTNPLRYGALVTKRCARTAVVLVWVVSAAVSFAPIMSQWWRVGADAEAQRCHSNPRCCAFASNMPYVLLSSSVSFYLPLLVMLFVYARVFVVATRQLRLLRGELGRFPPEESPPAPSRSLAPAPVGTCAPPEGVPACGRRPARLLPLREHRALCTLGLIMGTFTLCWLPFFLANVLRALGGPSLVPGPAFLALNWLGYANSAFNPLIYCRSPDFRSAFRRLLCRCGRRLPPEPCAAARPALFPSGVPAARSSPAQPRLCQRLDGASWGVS

[13] = molecular target: D1 (dopamine receptor type 1) (Homo sapiens, UniProt P21728); assay: NIMH PDSP secondary binding assay
[14] = molecular target: H2 (histamine receptor type 2) (Homo sapiens, UniProt P25021); assay: NIMH PDSP secondary binding assay
[15] = molecular target: H3 (histamine receptor type 3) (Homo sapiens, UniProt Q9Y5N1); assay: NIMH PDSP secondary binding assay
Chain of H3 (histamine receptor type 3) (Q9Y5N1 whole entry): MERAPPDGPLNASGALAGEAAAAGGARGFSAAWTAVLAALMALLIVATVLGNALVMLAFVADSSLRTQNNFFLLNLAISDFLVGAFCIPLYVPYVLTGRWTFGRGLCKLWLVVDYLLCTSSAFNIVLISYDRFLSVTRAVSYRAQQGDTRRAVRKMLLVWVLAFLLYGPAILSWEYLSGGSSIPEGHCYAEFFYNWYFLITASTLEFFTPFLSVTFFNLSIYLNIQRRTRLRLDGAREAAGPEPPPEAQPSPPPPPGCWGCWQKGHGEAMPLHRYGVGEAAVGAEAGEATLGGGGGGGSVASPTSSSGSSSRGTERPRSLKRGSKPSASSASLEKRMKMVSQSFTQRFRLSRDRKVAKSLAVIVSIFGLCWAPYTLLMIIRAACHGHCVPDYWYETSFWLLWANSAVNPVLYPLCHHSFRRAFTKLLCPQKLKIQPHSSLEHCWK

[16] = molecular target: M3 (muscarinic acetylcholine receptor type 3) (Homo sapiens, UniProt P20309); assay: NIMH PDSP secondary binding assay
[17] = molecular target: M4 (muscarinic acetylcholine receptor type 4) (Homo sapiens, UniProt P08173); assay: NIMH PDSP secondary binding assay
Chain of M4 (muscarinic acetylcholine receptor type 4) (P08173 whole entry): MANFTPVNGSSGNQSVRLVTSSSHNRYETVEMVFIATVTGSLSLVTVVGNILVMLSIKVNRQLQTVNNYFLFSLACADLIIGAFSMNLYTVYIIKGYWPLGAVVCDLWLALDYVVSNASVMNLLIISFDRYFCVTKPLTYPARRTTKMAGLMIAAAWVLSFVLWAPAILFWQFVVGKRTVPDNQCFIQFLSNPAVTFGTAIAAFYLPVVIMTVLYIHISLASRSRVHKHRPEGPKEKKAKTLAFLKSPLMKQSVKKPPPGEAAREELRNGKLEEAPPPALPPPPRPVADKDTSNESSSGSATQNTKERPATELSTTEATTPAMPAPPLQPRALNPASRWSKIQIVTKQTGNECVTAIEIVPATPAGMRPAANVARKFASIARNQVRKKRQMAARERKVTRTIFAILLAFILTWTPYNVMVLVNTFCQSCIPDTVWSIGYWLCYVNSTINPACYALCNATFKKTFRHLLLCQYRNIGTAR

[18] = molecular target: M5 (muscarinic acetylcholine receptor type 5) (Homo sapiens, UniProt P08912); assay: NIMH PDSP secondary binding assay
Chain of M5 (muscarinic acetylcholine receptor type 5) (P08912 whole entry): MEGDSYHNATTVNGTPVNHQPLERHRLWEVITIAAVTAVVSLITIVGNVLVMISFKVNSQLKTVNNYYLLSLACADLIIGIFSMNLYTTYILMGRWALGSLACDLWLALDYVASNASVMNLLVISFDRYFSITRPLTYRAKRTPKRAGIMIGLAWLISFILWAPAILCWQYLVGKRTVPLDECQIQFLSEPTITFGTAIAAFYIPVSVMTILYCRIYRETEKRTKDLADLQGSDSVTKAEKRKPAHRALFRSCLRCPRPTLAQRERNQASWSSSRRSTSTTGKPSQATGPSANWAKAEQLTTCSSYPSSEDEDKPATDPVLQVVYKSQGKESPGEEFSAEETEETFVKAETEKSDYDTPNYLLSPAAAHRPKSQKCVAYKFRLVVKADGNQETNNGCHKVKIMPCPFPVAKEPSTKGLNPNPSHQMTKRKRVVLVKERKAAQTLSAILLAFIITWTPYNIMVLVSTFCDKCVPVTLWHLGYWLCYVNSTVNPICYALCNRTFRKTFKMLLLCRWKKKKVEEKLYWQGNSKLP

[19] = molecular target: NET (norepinephrine transporter) (Homo sapiens, UniProt P23975); assay: NIMH PDSP secondary binding assay
Chain of NET (norepinephrine transporter) (P23975 whole entry, species assumed): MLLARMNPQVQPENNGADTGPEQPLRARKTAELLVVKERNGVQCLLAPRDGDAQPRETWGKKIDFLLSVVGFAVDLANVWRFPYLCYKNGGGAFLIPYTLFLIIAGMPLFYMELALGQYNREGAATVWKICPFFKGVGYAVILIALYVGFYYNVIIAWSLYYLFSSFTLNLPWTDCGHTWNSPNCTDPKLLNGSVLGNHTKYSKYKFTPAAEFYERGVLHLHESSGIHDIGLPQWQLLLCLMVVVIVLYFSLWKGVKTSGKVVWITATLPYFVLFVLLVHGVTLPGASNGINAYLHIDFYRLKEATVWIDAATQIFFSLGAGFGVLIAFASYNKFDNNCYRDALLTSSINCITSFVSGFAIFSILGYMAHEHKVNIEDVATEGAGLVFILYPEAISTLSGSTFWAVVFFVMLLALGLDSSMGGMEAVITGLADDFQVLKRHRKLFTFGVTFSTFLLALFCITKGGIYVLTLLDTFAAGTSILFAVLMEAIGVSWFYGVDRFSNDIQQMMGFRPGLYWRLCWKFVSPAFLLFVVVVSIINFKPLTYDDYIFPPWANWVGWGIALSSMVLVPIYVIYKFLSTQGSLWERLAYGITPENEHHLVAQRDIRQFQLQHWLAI

[20] = molecular target: SERT (serotonin transporter) (Homo sapiens, UniProt P31645); assay: NIMH PDSP secondary binding assay
[21] = system: MDA-MB-231; assay: Multiplex cytotoxicity assay; assay type: cell-based; conditions: Homo sapiens, MDA-MB-231, read-out: IC50 MDA-MB-231
[22] = system: MCF-7; assay: Multiplex cytotoxicity assay; assay type: cell-based; conditions: Homo sapiens, MCF7, read-out: IC50 MCF-7
[23] = system: MCF-10A; assay: Multiplex cytotoxicity assay; assay type: cell-based; conditions: Homo sapiens, read-out: IC50 MCF-10A
[24] = system: NCI-H460; assay: Multiplex cytotoxicity assay; assay type: cell-based; conditions: Homo sapiens, NCI-H460, read-out: IC50 NCI-H460
[25] = system: A549; assay: Multiplex cytotoxicity assay; assay type: cell-based; conditions: Homo sapiens, A549, read-out: IC50 A549
[26] = system: H1299; assay: Multiplex cytotoxicity assay; assay type: cell-based; conditions: Homo sapiens, NCI-H1299, read-out: IC50 H1299
[27] = system: HCT-15; assay: Multiplex cytotoxicity assay; assay type: cell-based; conditions: Homo sapiens, HCT-15, read-out: IC50 HCT-15
[28] = system: HT-29; assay: Multiplex cytotoxicity assay; assay type: cell-based; conditions: Homo sapiens, HT-29, read-out: IC50 HT-29
[29] = system: SK-OV-3; assay: Multiplex cytotoxicity assay; assay type: cell-based; conditions: Homo sapiens, SK-OV-3, read-out: IC50 SK-OV-3
[30] = system: Du145; assay: Multiplex cytotoxicity assay; assay type: cell-based; conditions: Homo sapiens, DU-145, read-out: IC50 Du145
[31] = system: SF-268; assay: Multiplex cytotoxicity assay; assay type: cell-based; conditions: Homo sapiens, SF-268, read-out: IC50 SF-268
[32] = system: caspases 3/7, 8, and 9; assay: Caspase activation potential; assay type: cell-based; conditions: data not shown
[33] = molecular target: sigma-1 receptor (Cavia porcellus, UniProt Q60492); assay: Saturation binding of [3H]-; design: species or system guinea pig; conditions: GPLM; increasing concentrations of 2b
Chain of sigma-1 receptor (Q60492 whole entry): as the sequence (Q60492 whole entry) above

[34] = system: tumors grown from the mouse mammary adenocarcinoma cell line 66; conditions: nude mice with tumors from mouse mammary adenocarcinoma cell line 66; cited from earlier work
[35] = system: caspases 3/7; assay: Caspase activation by rimcazole in cancer cell lines; assay type: cell-based; conditions: any cancer cell lines tested, including MCF-7
[36] = system: caspases 3/7; conditions: MCF-7 and MDA MB 468 mammary carcinoma; ref Spruce et al. 2004; cited from earlier work
[37] = read-out: KI pure sigma-1 receptor, Table 1, [3H]-(+)-pentazocine displacement

For `CCCCNCCCc1ccc([N+](=O)[O-])cc1` [1b, N-(3-(4-Nitrophenyl)propyl)butan-1-amine], the “KI sigma-2 sites” value [1] was “nanomolar affinities” and the sigma-2/sigma-1 [1] was 7.

With `CCCCCCCCCCCCCCCCCCNCCCc1ccc([N+](=O)[O-])cc1` [4b, N-(3-(4-Nitrophenyl)propyl)octadecan-1-amine] the Ki [2] was 0.042 ± 0.007 µM, the “KI sigma-2 sites” value [1] was “micromolar affinities” and the sigma-2/sigma-1 [1] was 0.3.

With `CCCCN` [Butylamine, reference compound] the Ki [2, 37] was 477 ± 67 µM and the “average inhibition of the Kv1.4 potassium channel” value [3] was 21%.

For `CCCCCCCCCCCCCCCCCCNCCCc1ccccc1` [4a, N-(3-Phenylpropyl)octadecan-1-amine], the “KI sigma-2 sites” value [1] was “micromolar affinities” and the sigma-2/sigma-1 [1] was 0.6.

For `CCCCCCCCN` [Octylamine], the Ki [2, 37] was 6 ± 3 µM.

In the case of `CCCCCCCNCCCc1ccc([N+](=O)[O-])cc1` [2b, N-(3-(4-Nitrophenyl)propyl)heptan-1-amine], the “KI sigma-2 sites” value [1] is reported as “nanomolar affinities”, the sigma-2/sigma-1 [1] is reported as 1 and the Ki [4] is reported as 0.02 µM. The Ki [5] was 0.014 µM, the Ki ([6]; NIMH PDSP, [3H]8-OH-DPAT/0.5 nM) was 0.05 µM and the Ki ([6]; text statement on secondary screen) was < 0.05 µM. For the same compound, the Ki [7] was > 10 µM, the Ki [8] was 1.1 µM and the Ki [9] was 0.9 µM. The Ki [10] was > 10 µM, the Ki [11] was > 10 µM and the Ki [12] was > 10 µM. The Ki [13] was > 10 µM, the Ki [14] was 0.6 µM and the Ki [15] was > 10 µM. The Ki [16] was 1.1 µM, the Ki [17] was 1.4 µM and the Ki [18] was 0.3 µM. For the same compound, the Ki [19] was 4 µM, the Ki [20] was 1.1 µM and the IC50 [21] was 30 ± 2 µM. For the same compound, the IC50 [22] was 21 ± 1 µM, the IC50 [23] was 53 ± 6 µM and the IC50 [24] was 38 ± 4 µM. For the same compound, the IC50 [25] was 55 ± 5 µM, the IC50 [26] was 28 ± 1 µM and the IC50 [27] was > 100 µM. For the same compound, the IC50 [28] was 30 ± 1 µM, the IC50 [29] was 73 ± 8 µM and the IC50 [30] was 29 ± 1 µM. The IC50 [31] was 40 ± 3 µM, the “activation of caspases 3/7, 8, and 9” value [32] was “did not activate” and the “Bmax of [3H]-(+)-pentazocine in the presence of 2b” value [33] was “unchanged”.

For `CCCCCCCN` [Heptylamine, reference compound], the “average inhibition of the Kv1.4 potassium channel” value [3] was 15%.

For `CCCCCN` [Amylamine], the Ki [2, 37] was 167 ± 35 µM.

With `CCCCNCCCc1ccccc1` [1a, N-(3-Phenylpropyl)butan-1-amine] the Ki [2] was 0.2 ± 0.02 µM, the “KI sigma-2 sites” value [1] was “nanomolar affinities” and the sigma-2/sigma-1 [1] was 2. It also gave an IC50 [3] of 50 µM.

With `CCCCCCCCCCCCCCN` [Tretradecylamine] the Ki [2, 37] was 1 ± 0.03 µM.

In the case of `O=C(Cc1cccc(Br)c1)NC1CCN(Cc2ccc([18F])cc2)CC1` [[^18F]FBPBPA, N-[1-(4′-[^18F]fluorobenzyl)piperidin-4-yl]-3-bromophenylacetamide], the “receptor-specific uptake of the tracer in the brain” value [34] is listed as ~ 60% and the “receptor-specific uptake of the tracer in the tumor” value [34] is listed as ~ 25%.

In the case of `C[C@@H]1CN(CCCn2c3ccccc3c3ccccc32)C[C@H](C)N1` [rimcazole], the “activation of caspases 3/7” value [35] is given as “not found to activate” and the “activation of caspases 3/7” value [36] is given as “activate”.
